Measured values reported in ChEMBL document CHEMBL1146750, “Design, synthesis and evaluation of potential inhibitors of HIV gp120-CD4 interactions” (Bioorg Med Chem Lett, 2004).

How the values were obtained:
[1] = system: Human immunodeficiency virus 1; test: Inhibition of HIV-cell fusion was determined at 10 uM by using cellular FIGS assay; Inactive; type: functional, organism-based
[2] = Toxicity against HIV cells; type: cell-based; details: human immunodeficiency virus 1
C8166 [3] = test: Inhibition of HIV-1 IIIB infections in C8166 cell lines was determined; 4-8 uM; type: functional, cell-based; details: Homo sapiens
[4] = Therapeutic index in C8166 cell lines was determined; type: cell-based; details: human, C8166 cells; read-out: TC50 (the source's name)
[5] = system: Human immunodeficiency virus 1; test: Inhibition of HIV-cell fusion was determined by using cellular FIGS assay; type: functional, organism-based
[6] = system: Human immunodeficiency virus 1; test: Inhibition of HIV-specific CD4-gp120 interaction was determined using recombinant protein; type: functional
C8166 [7] = test: Inhibition of HIV-1 IIIB infections in C8166 cell lines was determined; Range is 4-8 uM; type: functional, cell-based; details: Homo sapiens

Compound	IC50 [1]	Activity [2]	also measured
N=C(N)c1cccc(Oc2ccccc2)c1	Not Active	100 µM	
N=C(N)c1cccc(OCc2ccc(OCc3ccccc3)cc2)c1	Not Active	100 µM	
Cl.N=C(N)Nc1cccc(OCc2ccccc2)c1			EC50 (C8166 [3]): 8 µM; CC50 [4]: 40 µM; IC50 [5]: 131 µM; Inhibition [6]: 5 mM
Cl.N=C(N)Nc1cccc(Oc2ccccc2)c1			EC50 (C8166 [7]): 8 µM; CC50 [4]: 20 µM; IC50 [5]: 167 µM; Inhibition [6]: 5 mM
N=C(N)c1cccc(OCc2ccccc2)c1	Not Active	100 µM	
N=C(N)c1cccc(OCc2cccc([N+](=O)[O-])c2)c1	Not Active	100 µM	

Second part, led by results:

IC50 [1]	Compound	Activity [2]	also measured
Not Active	N=C(N)Nc1cccc(OCc2ccc(Cl)cc2)c1.O=C(O)C(F)(F)F	100 µM	
Not Active	Cc1ccc(COc2cccc(C(=N)N)c2)cc1	100 µM	
Not Active	N=C(N)Nc1cccc(OCc2ccc(Br)cc2)c1.O=C(O)C(F)(F)F	100 µM	
Not Active	N=C(N)c1cccc(OCc2ccc(Cl)cc2)c1	100 µM	
Not Active	N=C(N)c1cccc(OCc2ccc(Br)cc2)c1	100 µM	
